Reference: patent publication US20240034736A1, “HSD17B13 INHIBITORS AND USES THEREOF” (FL2022-001, Inc., priority 2020, published 2024)

molecular target: Recombinant human HSD17B13 enzyme (Homo sapiens (Human), UniProt Q7Z5P4); assay: HSD17b13 NAD(P)H-Glo Biochemical Assay; conditions: 50 uM estradiol, 1 mM NAD+; read-out: HSD17β13 IC50
Method in brief: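 Luminescent NAD(P)H-Glo detection (1 h, RT) quantified cofactor reduction after a 3 h, 37° C reaction of human HSD17B13 with estradiol (50 uM final) and NAD+ (1 mM final). Compounds were first pre-incubated 20 min at RT with enzyme in Tris pH 7.4 buffer containing Tween-20 and BSA.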

Recombinant human HSD17B13 enzyme, sequence (Q7Z5P4 20-300): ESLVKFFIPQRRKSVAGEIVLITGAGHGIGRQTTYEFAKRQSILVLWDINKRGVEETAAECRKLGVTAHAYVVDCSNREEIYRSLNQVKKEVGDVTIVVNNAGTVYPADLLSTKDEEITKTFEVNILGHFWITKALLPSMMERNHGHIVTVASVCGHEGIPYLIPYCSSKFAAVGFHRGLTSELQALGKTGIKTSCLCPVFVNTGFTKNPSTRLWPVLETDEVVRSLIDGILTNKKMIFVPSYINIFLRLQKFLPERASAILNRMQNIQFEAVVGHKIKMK

Compound | IC50 [µM]
Oc1cc(-n2ncc3cc(-c4ccc(C(F)F)cc4)ccc32)ccc1F [Compound 5.15, 5-(5-(4-(Difluoromethyl)phenyl)-1H-indazol-1-yl)-2-fluorophenol] | 0.1 to 1
CS(=O)(=O)N1CCN(c2ccc3c(cnn3-c3cc(O)c(F)c(C(F)(F)F)c3)c2)C2(CCC2)C1 [Compound 21.46, 2-Fluoro-5-(5-(8-(methyl-sulfonyl)-5,8-diazaspiro[3.5]-nonan-5-yl)-1H-indazol-1-yl)-3-(trifluoromethyl)phenol] | 0.1 to 1
N#Cc1cccc(-c2ccc3c(cnn3-c3ccc(F)c(O)c3)c2)c1 [Compound 6.01, 3-(1-(4-Fluoro-3-hydroxyphenyl)-1H-indazol-5-yl)benzonitrile] | 0.1 to 1
Oc1ccc(-c2ccc3c(cnn3-c3cc(O)c(F)c(F)c3)c2)nc1 [Compound 16, 6-(1-(3,4-Difluoro-5-hydroxyphenyl)-1H-indazol-5-yl)pyridine-3-ol] | 1 to 30
Oc1cc(-n2ncc3cc(-c4ccc(Cl)cc4)ccc32)ccc1F [Compound 4.09, 5-(5-(4-Chlorophenyl)-1H-indazol-1-yl)-2-fluorophenol] | 0.1 to 1
Cc1nn(-c2cc(O)c(F)c(F)c2)c2ccc(N3CCN(S(C)(=O)=O)CC3)cc12 [Compound 21.01, 2,3-Difluoro-5-(3-methyl-5-(4-(methylsulfonyl)piperazin-1-yl)-1H-indazol-1-yl)phenol] | 0.1 to 1
Oc1cc(-n2ncc3cc(-c4cncc(F)c4)ccc32)cc(F)c1F [Compound 7.04, 2,3-Difluoro-5-(5-(5-fluoropyridin-3-yl)-1H-indazol-1-yl)phenol] | 0.1 to 1
Oc1cc(-n2ncc3nc(-c4ccc(O)c(Cl)c4)ccc32)ccc1F [Compound 8.03, 2-Chloro-4-(1-(4-fluoro-3-hydroxyphenyl)-1H-pyrazolo[4,3-b]pyridine-5-yl)phenol] | 1 to 30
CS(=O)(=O)N1CCN(c2ccc3c(cnn3-c3cc(O)cc(C(F)(F)F)c3)c2)CC1 [Compound 28.07, 3-(5-(4-(Methylsulfonyl)-piperazin-1-yl)-1H-indazol-1-yl)-5-(trifluoromethyl)phenol] | 0.1 to 1
O=C(O)COc1ccc(-c2ccc3c(cnn3-c3ccc(F)c(O)c3)c2)cc1 [Compound 5.29, 2-(4-(1-(4-Fluoro-3-hydroxyphenyl)-1H-indazol-5-yl)phenoxy)acetic acid] | 1 to 30
Oc1cnc(-c2ccc3c(cnn3-c3cc(O)c(F)c(F)c3)c2)nc1 [Compound 16.02, 2-(1-(3,4-Difluoro-5-hydroxyphenyl)-1H-indazol-5-yl)pyrimidin-5-ol] | 1 to 30
CS(=O)(=O)Nc1ccc(-c2ccc3c(cnn3-c3ccc(F)c(O)c3)c2)c(Cl)c1 [Compound 10, N-(3-Chloro-4-(1-(4-fluoro-3-hydroxyphenyl)-1H-indazol-5-yl)phenyl)methanesulfonamide] | 0.1 to 1
CN(c1ccc2c(c1)c(C(F)(F)F)nn2-c1cc(C(F)(F)F)c(F)c(O)c1F)C1CCOCC1 [Compound 19.71, 2,6-Difluoro-3-(5-(methyl(tetrahydro-2H-pyran-4-yl)amino)-3-(trifluoromethyl)-1H-indazol-1-yl)-5-(trifluoromethyl)phenol] | 0.1 to 1
Oc1ccc(-c2ncc3c(cnn3-c3ccc(F)c(O)c3)n2)c(Cl)c1 [Compound 5.27, 5-(5-(2-Chloro-4-hydroxyphenyl)-1H-pyrazolo[4,3-d]pyrimidin-1-yl)-2-fluorophenol] | 0.1 to 1
CC1(C)CN(c2ccc3c(cnn3-c3cc(O)c(F)c(F)c3)c2)CCN1S(C)(=O)=O [Compound 21.29, 5-(5-(3,3-Dimethyl-4-(methyl-sulfonyl)piperazin-1-yl)-1H-indazol-1-yl)-2,3-difluoro-phenol] | 0.1 to 1
Oc1ccc(-c2ccc3c(cnn3-c3cccc(O)c3F)c2)cc1Cl [Compound 3.01, 3-(5-(3-Chloro-4-hydroxyphenyl)-1H-indazol-1-yl)-2-fluorophenol] | 0.1 to 1
COC1CN(c2ccc3c(cnn3-c3cc(O)c(F)c(F)c3)c2)C1 [Compound 21.25, 2,3-Difluoro-5-(5-(3-methoxy-azetidin-1-yl)-1H-indazol-1-yl)phenol] | 1 to 30
CC1(C)CC=C(c2cc3cnn(-c4cc(O)c(F)c(C(F)(F)F)c4)c3cc2F)CC1 [Compound 18, 5-(5-(4,4-Dimethylcyclohex-1-en-1-yl)-6-fluoro-1H-indazol-1-yl)-2-fluoro-3-(trifluoromethyl)phenol] | 0.1 to 1
CS(=O)(=O)N1CCN(c2cc3cnn(-c4cc(O)c(F)c(Cl)c4)c3cc2F)CC1 [Compound 19.02, 3-Chloro-2-fluoro-5-(6-fluoro-5-(4-(methylsulfonyl)piperazin-1-yl)-1H-indazol-1-yl)phenol] | 0.1 to 1
CS(=O)(=O)NC1CCN(c2ccc3c(cnn3-c3cc(O)c(F)c(F)c3)c2)CC1 [Compound 21.05, N-(1-(1-(3,4-Difluoro-5-hydroxyphenyl)-1H-indazol-5-yl)piperidin-4-yl)methane-sulfonamide] | 1 to 30
CC1(C)CN(S(C)(=O)=O)CCN1c1ccc2c(cnn2-c2cc(O)c(F)c(F)c2)c1 [Compound 21.30, 5-(5-(2,2-Dimethyl-4-(methyl-sulfonyl)piperazin-1-yl)-1H-indazol-1-yl)-2,3-difluoro-phenol] | 1 to 30
COC1CCN(c2ccc3c(cnn3-c3cc(O)c(F)c(F)c3)c2)C1 (stereo not shown) [Compound 21.22, 2,3-Difluoro-5-(5-(3-methoxy-pyrrolidin-1-yl)-1H-indazol-1-yl)phenol] | 1 to 30
Cc1nn(-c2cc(O)c(F)c(C(F)(F)F)c2)c2cnc(N3CCOCC34CC4)cc12 [Compound 19.85, 2-Fluoro-5-(3-methyl-5-(7-oxa-4-azaspiro[2.5]octan-4-yl)-1H-pyrazolo[3,4-c]pyridin-1-yl)-3-(trifluoromethyl)phenol] | < 0.1
CS(=O)(=O)N1CCN(c2cc3cnn(-c4cc(O)c(F)c(F)c4)c3cc2F)CC1 [Compound 21.24, 2,3-Difluoro-5-(6-fluoro-5-(4-(methylsulfonyl)piperazin-1-yl)-1H-indazol-1-yl)phenol] | 0.1 to 1
Cc1nn(-c2cc(C(F)(F)F)c(Cl)c(O)c2F)c2cc(F)c(N3CCN(S(C)(=O)=O)CC34CC4)cc12 [Compound 19.110, 2-Chloro-6-fluoro-5-(6-fluoro-3-methyl-5-(7-(methylsulfonyl)-4,7-diazaspiro[2.5]octan-4-yl)-1H-indazol-1-yl)-3-(trifluoromethyl)phenol] | < 0.1
CS(=O)(=O)N1CCN(c2cc3cnn(-c4cc(O)c(F)c(C(F)(F)F)c4)c3cc2Cl)CC1 [Compound 19, 5-(6-Chloro-5-(4-(methylsulfonyl)piperazin-1-yl)-1H-indazol-1-yl)-2-fluoro-3-(trifluoromethyl)phenol] | < 0.1

same assay, conditions: read-out: HSD17β13 inhibition at 30 uM

Compound | inhibition at 30 µM [%]
Cc1nn(-c2cc(O)ccc2C#N)c2cnc(N(C)C3CCOCC3)cc12 [Compound 19.61, 4-Hydroxy-2-(3-methyl-5-(methyl(tetrahydro-2H-pyran-4-yl)amino)-1H-pyrazolo[3,4-c]pyridin-1-yl)benzonitrile] | 55
CS(=O)(=O)N1CCN(c2cc3cnn(-c4ccc(C#N)c(O)c4)c3cn2)CC1 [Compound 19.36, 2-Hydroxy-4-(5-(4-(methylsulfonyl)piperazin-1-yl)-1H-pyrazolo[3,4-c]pyridine-1-yl)benzonitrile] | 40
